According to patent EP0857483A1, “Substituted aminopyridines in the treatment of glucose metabolism disorders” (ELI LILLY AND COMPANY, priority 1997, dated 1998):

What was measured:
[1] = test system: Zucker diabetic fatty rat (ZDF-DRT-fa); experiment: Plasma glucose in 6 week-old prediabetic Zucker diabetic fatty rats; type: in vivo; conditions: value (SEM)
Method: (§1) The activity of the compounds of the present invention was determined by testing the efficacy in vivo in Zucker diabetic rats.
(§2) The Zucker diabetic fatty rat (ZDF-DRT-fa) is a classic rodent model of diabetes associated with obesity and insulin resistance, with tissue specific defects in insulin sensitivity similar to human patients with type II diabetes mellitus. This animal model at six weeks of age is normoglycemic, but glucose intolerant (Clark JB, Palmer CJ, and Shaw WN: The diabetic Zucker fatty rat, Proceeding of the Society for Experimental Bioloqy and Medicine 173, 68-75, 1983; and Peterson RG, Shaw WN, Neel M, Little LA, Eichburg J: Zucker diabetic fatty rat as a model for non-insulin dependent diabetes mellitus. ILAR News 32:16-19, 1990.) Between seven and eight weeks of age, plasma glucose levels rise as the pancreatic beta cells lose their ability to secrete sufficient insulin to compensate for insulin resistance. In an attempt to maintain plasma glucose in normal range, the pancreas is forced to secrete increasing amount of insulin, resulting in hyperinsulinemia (Bue JM and Shaw WN: ZDF-Drt-fa rat: A new model with marked susceptibility to dietary manipulation. Diabetes 40:865A, 1991). The ZDF rat is usually studied between eight and nine weeks of age when it is hyperglycemic, hyperinsulinemic, and hyperlipemic, in an attempt to halt further decline of pancreatic function. The present study was carried out in six weeks old animals (prediabetic). The purpose of this study was to determine whether moxonidine treatment will prevent or delay onset of diabetes in the six weeks old prediabetic ZDF rat.
(§3) To determine the impact of treatment with the substituted aminopyrimidines of Formula I on the progression of disease 6 week-old ZDF animals were grouped into the following categories, with 5 animals assigned to each group. Group 1 Control (5008 chow ad libitum) Group 2 Moxonidine (10 mg/kg/day) Group 3 Pair fed to correct for decrease in food consumption in 10 mg/kg/day group
(§4) Rats were housed one per plastic cage with bedding and had free access to water and Purina Formulalab 5008 Chow (except pair fed group). Because previous studies had indicated a reduction in food consumption with moxonidine treatment, body weight and food consumption were monitored daily, and a group of control animals was pair fed to moxonidine treated group. Blood samples were collected from the tail vein. Plasma glucose and insulin levels are monitored weekly.
(§5) Plasma glucose was measured by coupled hexokinase method on the IL Monarch System (Instrumentation Laboratory, Lexington, MA). Plasma insulin was determined with radioimmunoassay kit from Diagnostics Products Corporation (San Diego, CA) using rat insulin as a standard.
(§6) Plasma glucose and plasma insulin were monitored weekly. The results of these in vivo experiments are set forth below in Tables 1 and 2. The value in parenthesis following the plasma glucose value and plasma insulin value is the standard error of the mean.

[2] = test system: Zucker diabetic fatty rat (ZDF-DRT-fa); experiment: Plasma insulin in 6 week-old prediabetic Zucker diabetic fatty rats; type: in vivo; conditions: value (SEM)
Method: as §1, §2, §3, §4, §5, §6

[3] = test system: Zucker diabetic fatty rat (ZDF-DRT-fa); experiment: Further study: plasma glucose in ZDF rats with dose reduction and withdrawal of treatment; type: in vivo
Method: as §3, §4, §5
A further study was carried out as described above, except that moxonidine treatment was reduced to 6.4 mg/kg/day for two days, followed by resumption of moxonidine treatment at 10 mg/kg/day for 13 days, and then stopping moxonidine treatment.

[4] = test system: I1 receptors over α2 adrenergic receptors; conditions: bovine RVLM; saturation binding; Ernsberger et al., J. Pharmacol. Exp. Ther., 264, 172-182 (1993); cited from earlier work

COc1nc(C)nc(Cl)c1N=C1NCCN1 [Moxonidine, 4-chloro-N-(imidazoline-2-ylidene) -6-methoxy-2-methyl-5-pyrimidineamine]
Plasma Glucose ([1]; Day 0, 10 mg/kg/day): 145.6 (2.4) mg/dl
Plasma Glucose ([1]; Day 7, 10 mg/kg/day): 148.1 (13.8) mg/dl
Plasma Glucose ([1]; Day 14, 10 mg/kg/day): 166.1 (11.2) mg/dl
Plasma Glucose ([1]; Day 21, 10 mg/kg/day): 164.2 (8.0) mg/dl
Plasma Glucose ([1]; Day 28, 10 mg/kg/day): 168.0 (12.6) mg/dl
Plasma Glucose ([1]; Day 35, 10 mg/kg/day): 191.6 (8.2) mg/dl
Plasma Glucose ([1]; Day 42, 10 mg/kg/day): 179.8 (6.1) mg/dl
Plasma Glucose ([1]; Day 49, 10 mg/kg/day): 152.1 (8.7) mg/dl
Plasma Glucose ([1]; Day 63, 10 mg/kg/day): 168.4 (12.6) mg/dl
Plasma Insulin ([2]; Day 0, 10 mg/kg/day): 10.9 (0.9) ng/ml
Plasma Insulin ([2]; Day 7, 10 mg/kg/day): 9.3 (1.0) ng/ml
Plasma Insulin ([2]; Day 14, 10 mg/kg/day): 12.7 (1.4) ng/ml
Plasma Insulin ([2]; Day 21, 10 mg/kg/day): 17.8 (1.2) ng/ml
Plasma Insulin ([2]; Day 28, 10 mg/kg/day): 23.4 (1.8) ng/ml
Plasma Insulin ([2]; Day 35, 10 mg/kg/day): 24.8 (1.4) ng/ml
Plasma Insulin ([2]; Day 42, 10 mg/kg/day): 20.6 (0.7) ng/ml
Plasma Glucose ([3]; Treatment period day 0, mox @ 10 m/k/d): 141.5333 mg/dL
Plasma Glucose ([3]; Treatment period day 7, mox @ 10 m/k/d): 152.8917 mg/dL
Plasma Glucose ([3]; Treatment period day 14, mox @ 10 m/k/d): 166.2528 mg/dL
Plasma Glucose ([3]; Treatment period day 21, at this day reduced mox dose to 6.4 m/k/d): 172.1556 mg/dL
Plasma Glucose ([3]; Treatment period day 23, after two days at 6.4 m/k/d, mox @ 10 m/k/d resumed): 254.0889 mg/dL
Plasma Glucose ([3]; Treatment period day 28, mox @ 10 m/k/d): 251.4833 mg/dL
Plasma Glucose ([3]; Treatment period day 36, stopped mox treatment): 242.5944 mg/dL
Plasma Glucose ([3]; Treatment period day 42, 1 wk after mox is removed): 265.9556 mg/dL
Plasma Glucose ([3]; Treatment period day 49, 2 wks after mox is removed): 410.425 mg/dL

Clc1cccc(Cl)c1N=C1NCCN1 [clonidine]
selectivity value (Ki at α2 sites in µM/Ki sites in µM) [4]: less than 4
